Each molecule was assayed against T1, Axl (Homo sapiens, UniProt P30530) (assay: Phospho-Akt In-Cell Western Assay (inhibition of Axl activity after Axl-antibody cross-linking)). Conditions: Hela cells, phospho-Akt chemiluminescence normalized to relative cell number; compounds of formula (Ia), Table 1; read-out: IC50.
T1 construct: endogenous in cells; host or cells: HeLa cells
T1 sequence (P30530 26-894): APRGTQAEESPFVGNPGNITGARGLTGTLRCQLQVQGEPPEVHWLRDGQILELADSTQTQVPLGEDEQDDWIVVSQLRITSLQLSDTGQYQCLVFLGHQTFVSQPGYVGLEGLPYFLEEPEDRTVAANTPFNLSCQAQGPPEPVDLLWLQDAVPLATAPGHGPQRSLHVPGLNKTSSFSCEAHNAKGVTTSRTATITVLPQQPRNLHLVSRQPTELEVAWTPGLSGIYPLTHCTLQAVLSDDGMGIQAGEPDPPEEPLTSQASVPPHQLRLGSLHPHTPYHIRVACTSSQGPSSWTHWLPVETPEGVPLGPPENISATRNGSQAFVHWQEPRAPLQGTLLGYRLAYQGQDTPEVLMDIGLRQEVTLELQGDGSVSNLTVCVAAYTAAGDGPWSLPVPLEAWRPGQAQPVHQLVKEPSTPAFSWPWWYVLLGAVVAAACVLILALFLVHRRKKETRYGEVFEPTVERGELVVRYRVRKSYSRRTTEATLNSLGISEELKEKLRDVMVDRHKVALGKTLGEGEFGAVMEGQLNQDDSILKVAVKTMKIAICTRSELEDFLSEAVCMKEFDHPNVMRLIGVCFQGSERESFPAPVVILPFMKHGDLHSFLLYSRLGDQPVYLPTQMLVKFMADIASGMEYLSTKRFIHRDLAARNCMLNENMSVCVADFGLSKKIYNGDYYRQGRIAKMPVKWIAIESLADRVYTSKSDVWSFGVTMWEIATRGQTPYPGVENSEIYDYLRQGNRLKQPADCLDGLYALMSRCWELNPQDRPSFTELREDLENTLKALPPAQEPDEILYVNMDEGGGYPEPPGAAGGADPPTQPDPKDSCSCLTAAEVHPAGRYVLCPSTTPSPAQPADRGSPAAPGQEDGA
Format: cell-based
In short: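 Phospho-Akt was detected in formaldehyde-fixed cells by in-cell immunostaining with HRP chemiluminescence. Before fixation, HeLa cells kept 24 h in low-serum medium containing 500 ng/mL Axl/Fc received compound for 1 h at 37 °C, followed by 5-min Axl activation through antibody clustering.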

Row | IC50 | SMILES
1 | 1 to 10 µM | Nc1nc(Nc2ccc(N3CC[C@@H](CN4CCCC4)C3)c(F)c2)nn1-c1cc2c(nn1)-c1ccccc1CCC2 [Compound 115, 1-(6,7-dihydro-5H-benzo[6,7]cyclohepta[1,2-c]pyridazin-3-yl)-N^3-(3-fluoro-4-((S)-3-(pyrrolidin-1-ylmethyl)pyrrolidinyl)phenyl)-1H-1,2,4-triazole-3,5-diamine]
2 | < 1 µM | Cc1cc(Nc2nc(N)n(-c3cc4c(nn3)-c3ccccc3CCC4)n2)ccc1N1CCC(N2CCN(C)CC2)CC1 [Compound 114, 1-(6,7-dihydro-5H-benzo[6,7]cyclohepta[1,2-c]pyridazin-3-yl)-N^3-(3-methyl-4-(4-(N-methylpiperazin-4-yl)piperidin-1-yl)phenyl)-1H-1,2,4-triazole-3,5-diamine]
3 | < 1 µM | CC(C)N1CCN(c2ccc(Nc3nc(N)n(-c4cc5c(nn4)-c4ccccc4CCC5)n3)cc2F)CC1 [Compound 111, 1-(6,7-dihydro-5H-benzo[6,7]cyclohepta[1,2-c]pyridazin-3-yl)-N^3-(3-fluoro-4-(N-isopropylpiperazin-1-yl)phenyl)-1H-1,2,4-triazole-3,5-diamine]
4 | > 20 µM | Nc1nc(Nc2ccc(I)nc2)nn1-c1cc2c(nn1)-c1ccccc1CCC2 [Compound 92, 1-(6,7-dihydro-5H-benzo[6,7]cyclohepta[1,2-c]pyridazin-3-yl)-N^3-(6-iodopyridin-3-yl)-1H-1,2,4-triazole-3,5-diamine]
5 | 1 to 10 µM | CC(C)(C)OC(=O)NC1CCN(c2ccc(Nc3nc(N)n(-c4cc5c(nn4)-c4ccccc4CCC5)n3)cc2F)CC1 [Compound 86, 1-(6,7-dihydro-5H-benzo[6,7]cyclohepta[1,2-c]pyridazin-3-yl)-N^3-(3-fluoro-4-(4-(tert-butyloxycarbonylamino)-piperidin-1-yl)phenyl)-1H-1,2,4-triazole-3,5-diamine]

The next lines start with the molecule.

Row | SMILES | IC50
6 | COc1cc2c(c(OC)c1OC)-c1nnc(-n3nc(Nc4ccc(N5CCC(N6CCCC6)CC5)c(F)c4)nc3N)cc1CCC2 [Compound 65, 1-(6,7-dihydro-5H-9,10,11-trimethoxybenzo[6,7]cyclo-hepta[1,2-c]pyridazin-3-yl)-N^3-(3-fluoro-4-(4-pyrrolidin-1-yl-piperidin-1-yl)phenyl)-1H-1,2,4-triazole-3,5-diamine] | < 1 µM
7 | Nc1nc(Nc2ccc(N3CCN(C4CCCCC4)CC3)c(F)c2)nn1-c1ncc2c(n1)-c1ccccc1CCC2 [Compound 45, 1-(6,7-dihydro-5H-benzo[6,7]cyclohepta[1,2-d]pyrimidin-2-yl)-N^3-(3-fluoro-4-(4-cyclohexylpiperazinyl)phenyl)-1H-1,2,4-triazole-3,5-diamine] | < 1 µM
8 | Nc1nc(Nc2ccc(CN3CCN(C4CCCC4)CC3)cc2)nn1-c1cc2c(nn1)-c1ccccc1CCC2 [Compound 104, 1-(6,7-dihydro-5H-benzo[6,7]cyclohepta[1,2-c]pyridazin-3-yl)-N^3-(4-((4-cyclopentylpiperazinyl)-methyl)phenyl)-1H-1,2,4-triazole-3,5-diamine] | < 1 µM
9 | Nc1nc(Nc2ccc3oc(CN4CCCC4)nc3c2)nn1-c1cc2c(nn1)-c1ccccc1OCC2 [Compound 118, 1-(6,7-dihydro-5H-benzo[2,3]oxepino[4,5-c]pyridazin-3-yl)-N^3-(2-(pyrrolidin-1-ylmethyl)benzo[d]oxazol-5-yl)-1H-1,2,4-triazole-3,5-diamine] | 1 to 10 µM
10 | COc1ccc2c(c1)CCCc1cc(-n3nc(Nc4ccc(N5CCC(N6CCCC6)CC5)c(F)c4)nc3N)nnc1-2 [Compound 52, 1-(6,7-dihydro-5H-9-methoxybenzo[6,7]cyclo-hepta[1,2-c]pyridazin-3-yl)-N^3-(3-fluoro-4-(4-(pyrrolidin-1-yl)piperidin-1-yl)phenyl)-1H-1,2,4-triazole-3,5-diamine] | < 1 µM

Same assay, conditions: Hela cells, phospho-Akt chemiluminescence normalized to relative cell number; compounds of formula (Ib), Table 2; read-out: IC50

Row | SMILES | IC50
11 | CN(C1CCc2ccc(Nc3nc(N)nn3-c3cc4c(nn3)-c3ccccc3CCC4)cc2CC1)C1CC2CCC1C2 (stereo not shown) [Compound 161, 1-(6,7-dihydro-5H-benzo[6,7]cyclohepta[1,2-c]pyridazin-3-yl)-N^5-(7-((bicyclo[2.2.1]heptan-2-yl)(methyl)amino)-6,7,8,9-tetrahydro-5H-benzo[7]annulene-2-yl)-1H-1,2,4-triazole-3,5-diamine] | 1 to 10 µM
12 | CN1CCC(N2CCN(c3ccc(Nc4nc(N)nn4-c4cc5c(nn4)-c4ccccc4CCC5)cc3F)CC2)CC1 [Compound 168, 1-(6,7-dihydro-5H-benzo[6,7]cyclohepta[1,2-c]pyridazin-3-yl)-N^5-(3-fluoro-4-(4-N-methylpiperid-4-ylpiperazinyl)phenyl)-1H-1,2,4-triazole-3,5-diamine] | 1 to 10 µM

Same assay, conditions: inhibition of Axl activity; Table 1, compounds of formula (Ia); read-out: IC50

Row | IC50 | SMILES
13 | < 1 µM | Nc1nc(Nc2cnc(N3CCC(N4CCCC4)CC3)nc2)nn1-c1cc2c(nn1)-c1ccccc1CCC2 [Compound 147, 1-(6,7-dihydro-5H-benzo[6,7]cyclohepta[1,2-c]pyridazin-3-yl)-N^3-(2-(4-pyrrolidin-1-ylpiperidin-1-yl)pyrimidin-5-yl)-1H-1,2,4-triazole-3,5-diamine]
14 | < 1 µM | Nc1nc(Nc2ccc3c(c2)CCC(NC2CCCCC2)CC3)nn1-c1cc2c(nn1)-c1ccccc1CCC2 (stereo not shown) [Compound 224, 1-(6,7-dihydro-5H-benzo[6,7]cyclohepta[1,2-c]pyridazin-3-yl)-N^3-(7-cyclohexylamino-6,7,8,9-tetrahydro-5H-benzo[7]annulene-2-yl)-1H-1,2,4-triazole-3,5-diamine]
15 | < 1 µM | CN1CCN(C2CCN(CC=Cc3ccc(Nc4nc(N)n(-c5cc6c(nn5)-c5ccccc5CCC6)n4)cc3)CC2)CC1 [Compound 196, 1-(6,7-dihydro-5H-benzo[6,7]cyclohepta[1,2-c]pyridazin-3-yl)-N^3-(4-(4-(4-methylpiperazin-1-yl)piperidin-1-ylprop-1-enyl)phenyl)-1H-1,2,4-triazole-3,5-diamine]
16 | < 1 µM | Nc1nc(Nc2ccc(N3CCCN(C4CC5CCC4C5)CC3)nc2)nn1-c1cc2c(nn1)-c1ccccc1CCC2 (stereo not shown) [Compound 140, 1-(6,7-dihydro-5H-benzo[6,7]cyclohepta[1,2-c]pyridazin-3-yl)-N^3-(6-(4-(bicyclo[2.2.1]heptan-2-yl)-1,4-diazepan-1-yl)pyridin-3-yl)-1H-1,2,4-triazole-3,5-diamine]
17 | < 1 µM | Nc1nc(Nc2ccc3c(c2)CCC(N2CC[C@H](F)C2)CC3)nn1-c1cc2c(nn1)-c1ccccc1CCC2 (stereo partly drawn) [Compound 217, 1-(6,7-dihydro-5H-benzo[6,7]cyclohepta[1,2-c]pyridazin-3-yl)-N^3-(7-(3-(S)-fluoropyrrolidin-1-yl)-6,7,8,9-tetrahydro-5H-benzo[7]annulene-2-yl)-1H-1,2,4-triazole-3,5-diamine]
18 | 1 to 10 µM | CCN(CC)CCC1CCCc2ccc(Nc3nc(N)n(-c4cc5c(nn4)-c4ccccc4CCC5)n3)cc2C1O (stereo not shown) [Compound 208, 1-(6,7-dihydro-5H-benzo[6,7]cyclohepta[1,2-c]pyridazin-3-yl)-N^3-(8-diethylaminoethyl-9-hydroxy-6,7,8,9-tetrahydro-5H-benzo[7]annulene-2-yl)-1H-1,2,4-triazole-3,5-diamine]
19 | < 1 µM | Nc1nc(Nc2ccc(/C=C/CN3CCCCC3)nc2)nn1-c1cc2c(nn1)-c1ccccc1CCC2 [Compound 138, 1-(6,7-dihydro-5H-benzo[6,7]cyclohepta[1,2-c]pyridazin-3-yl)-N^3-(6-(3-piperidin-1-yl-(E)-propenyl)pyridin-3-yl)-1H-1,2,4-triazole-3,5-diamine]

Continued, molecule first:

Row | SMILES | IC50
20 | COc1cc2ncnc(-n3nc(Nc4cnc5c(c4)CC4(CCC5)OCCO4)nc3N)c2cc1OC [Compound 239, 1-(6,7-dimethoxy-quinazolin-4-yl)-N^3-(5,7,8,9-tetrahydrospiro[cyclohepta[b]pyridine-6,2′-[1,3]dioxolane]-3-yl)-1H-1,2,4-triazole-3,5-diamine] | 1 to 10 µM
21 | Nc1nc(Nc2ccc3c(c2)CCC(N2CCC(N4CCCC4)CC2)CC3)nn1-c1cc2c(nn1)-c1ccccc1CCC2 (stereo not shown) [Compound 232, 1-(6,7-dihydro-5H-benzo[6,7]cyclohepta[1,2-c]pyridazin-3-yl)-N^3-(7-(4-pyrrolidin-1-ylpiperidin-1-yl)-6,7,8,9-tetrahydro-5H-benzo[7]annulene-2-yl)-1H-1,2,4-triazole-3,5-diamine] | < 1 µM
22 | CN1CC2CN(C3CCN(c4ccc(Nc5nc(N)n(-c6cc7c(nn6)-c6ccccc6CCC7)n5)cc4F)CC3)CC2C1 (stereo not shown) [Compound 134, 1-(6,7-dihydro-5H-benzo[6,7]cyclohepta[1,2-c]pyridazin-3-yl)-N^3-(3-fluoro-4-(4-(5-methyloctahydropyrrolo[3,4-c]pyrrolyl)piperidin-1-yl)phenyl)-1H-1,2,4-triazole-3,5-diamine] | < 1 µM

Source: patent publication US7709482B2, “Polycyclic heteroaryl substituted triazoles useful as Axl inhibitors” (Rigel Pharmaceuticals, Inc., priority 2006, dated 2010)
